Converted amounts (≈) assume the structure as drawn.
How the values were obtained:
in vivo = conditions: male, Dutch Belted, rabbit, topical or ocular, 4 mg
From the text: The animals' eyes were examined by a board certified veterinary ophthalmologist using a slitlamp biomicroscope and an indirect ophthalmoscope. The exams occurred predose and on the indicated study days prior to sacrifice, as applicable. On specified days, at least two animals/time point were euthanized for the collection of blood (for plasma) and ocular tissues (aqueous humor, vitreous humor, retina, and sclera/choroid-RPE).
For the initial study, the animals were acclimated to study conditions for 16 days prior to dose administration. At dosing, the animals weighed 1721 to 1941 g and were 5 months of age. All animals were housed in individual, suspended, stainless steel cages during acclimation and the test period. Certified Hi-Fiber Rabbit Diet #5325 (PMI) was provided. Water was provided fresh daily, ad libitum. Environmental controls for the animal room were set to maintain a temperature of 16 to 22° C. (Deviation), a relative humidity of 50±20% (Deviation), and a 12-hour light/12-hour dark cycle. […]
The dosing formulation was drawn up into a 1-mL luer-lock syringe using a standard 21-gauge, 1-inch needle; any bubbles were expressed, and the standard needle was replaced by a 30-gauge microneedle 700 μm in length. […] Any dosing observations were recorded. […]

[1] = Ocular distribution and pharmacokinetics after suprachoroidal injection of CLS-AX, 0.03 or 0.1 mg/eye (second study); type: in vivo, male pigmented Dutch Belted rabbits; conditions: for tmax: Retina; for half-life: sclera/choroid-RPE (SCR), SCR; for Cmax: topical or ocular, study day 2
[2] = Solubility of the API (product profile); type: physicochemical

- half-life (in vivo): 102 days
- Cmax (in vivo; Cmax): 857 ng/mL
- eyes having quantifiable levels in retina ([1]; 0.03 mg/eye, days 31 and 61): 1 of 4
- eyes having quantifiable levels in retina ([1]; 0.1 mg/eye, Days 45 through 66): 1 of 4
- tmax ([1]; 0.03 mg/eye): 1 days
- tmax ([1]; 0.1 mg/eye): 1 days
- concentration at 15 day ([1]; male, Dutch Belted, rabbit, other: suprachoroidal injection, retina, 0.03 mg/eye, by day 15, essentially below, read-out: mean retina concentrations (limit of quantitation)): < 16.7 ng/g
- half-life ([1]; male, Dutch Belted, rabbit, other: suprachoroidal injection, 0.03 mg/eye): 10.7 days
- half-life ([1]; male, Dutch Belted, rabbit, other: suprachoroidal injection, 0.1 mg/eye): 15.8 days
- Cmax ([1]; male, Dutch Belted, rabbit, retina, 0.03 mg/eye): 4480 ng/g
- Cmax ([1]; male, Dutch Belted, rabbit, retina, 0.1 mg/eye): 6260 ng/g
- mean AUC0-t, higher dose versus lower dose ([1]; retina, 0.1 vs 0.03 mg/eye): 1.6 fold
- mean Cmax, higher dose versus lower dose ([1]; retina, 0.1 vs 0.03 mg/eye): 1.4 fold
- Solubility (solvent) [2]: DMSO
- solubility ([2]; in water): 0.2 µg/mL (≈ 0.517 µM)
SMILES: CNC(=O)c1ccccc1Sc1ccc2c(/C=C/c3ccccn3)n[nH]c2c1 [Axitinib]
